Calls of active or inactive are those of the source. No cut-off for these calls is given here.
How the values were obtained:
[1] = test system: NCI-H1975; assay: cells; format: functional, cell-based; conditions: Homo sapiens, NCI-H1975, 48 h
Description: Cytotoxicity against human NCI-H1975 cells assessed as inhibition of cell growth incubated for 48 hrs by Celltiter-glo assay

[2] = biological target: Histone deacetylase; assay: Inhibition of HDAC in human HeLa cells nuclear extract; format: subcellular, Nucleus
[3] = test system: MDA-MB-231; assay: Cytotoxicity against human MDA-MB-231 cells assessed as inhibition of cell growth incubated for 48 hrs by Celltiter-glo assay; format: functional, cell-based; conditions: MDA-MB-231, 48 h
[4] = Antiproliferative activity against human CL1-5 cells harboring wild-type EGFR assessed as inhibition of cell growth by SRB assay; format: functional, cell-based
[5] = Antiproliferative activity against human CL25 cells harboring mutated EGFR assessed as inhibition of cell growth by SRB assay; format: functional, cell-based
[6] = Antiproliferative activity against human CL83 cells harboring wild-type EGFR assessed as inhibition of cell growth by SRB assay; format: functional, cell-based
[7] = Antiproliferative activity against human CL100 cells harboring mutated EGFR assessed as inhibition of cell growth by SRB assay; format: functional, cell-based
[8] = Antiproliferative activity against human CL141 cells harboring wild-type EGFR assessed as inhibition of cell growth by SRB assay; format: functional, cell-based
[9] = test system: CL97; assay: Antiproliferative activity against human CL97 cells harboring mutated EGFR assessed as inhibition of cell growth by SRB assay; format: functional, cell-based
[10] = test system: NCI-H1975; assay: Induction of katanin activation mediated microtubule fragmentation in human NCI-H1975 cells at 80 nM incubated for 12 hrs by FITC/DAPI staining based confocal laser microscopic analysis; format: cell-based; conditions: filed as activator
[11] = test system: CL1-0; assay: Antiproliferative activity against human CL1-0 cells harboring wild-type EGFR assessed as inhibition of cell growth by SRB assay; format: functional, cell-based
[12] = Antiproliferative activity against human CL152 cells harboring wild-type EGFR assessed as inhibition of cell growth by SRB assay; format: functional, cell-based

Row | IC50 [1] | IC50 [2] | SMILES | other results
1 | 300 nM | 30 nM | CCOc1ccc(-c2nc(C(=O)NCCCCCCC(=O)NO)c3[nH]c(=O)n(-c4cccnc4OC)c3n2)cc1 | IC50 [3]: 60 nM
2 | – | > 100000 nM | CCOc1ccc(-c2nc(C(N)=O)c3[nH]c(=O)n(-c4ccccc4OC)c3n2)cc1 | –
3 | > 100000 nM | > 100000 nM | COc1ccccc1-n1c(=O)[nH]c2c(C(N)=O)nc(-c3ccc(C(C)C)cc3)nc21 | –
4 | 1200 nM | 10 nM | COc1ccc(-c2nc(C(=O)NCCCCCCC(=O)NO)c3[nH]c(=O)n(-c4ccccc4OC)c3n2)cc1O | IC50 [3]: 310 nM
5 | 2600 nM | > 100000 nM | CCOc1ccc(-c2nc(C(=O)NCCCCCCC(=O)Nc3nccs3)c3[nH]c(=O)n(-c4ccccc4OC)c3n2)cc1 | –
6 | 5600 nM | 2830 nM | CCOc1ccc(-c2nc(C(=O)NCCCCCCC(=O)CSC(C)=O)c3[nH]c(=O)n(-c4ccccc4OC)c3n2)cc1 | –
7 | 400 nM | 40 nM | CCOc1ccc(-c2nc(C(=O)NCCCCCCC(=O)NO)c3[nH]c(=O)n(-c4ccccc4OC)c3n2)cn1 | IC50 [3]: 60 nM
8 | 400 nM | > 100000 nM | CCOc1ccc(-c2nc(C(=O)NCCCCCCC(=O)NOC)c3[nH]c(=O)n(-c4ccccc4OC)c3n2)cc1 | –
9 | 4600 nM | 10800 nM | CCOc1ccc(-c2nc(C(=O)NCCOCCOCC(=O)NO)c3[nH]c(=O)n(-c4ccccc4OC)c3n2)cc1 | –
10 | 16200 nM | > 100000 nM | CCOc1ccc(-c2nc(C(=O)NCCCCNC(=O)CN)c3[nH]c(=O)n(-c4ccccc4OC)c3n2)cc1.Cl | –
11 | 1400 nM | > 100000 nM | CCOc1ccc(-c2nc(C(=O)NCCCCCCC(=O)NC3CCCCC3O)c3[nH]c(=O)n(-c4ccccc4OC)c3n2)cc1 (centres undefined) | –
12 | 24800 nM | 60 nM | CCOc1ccc(-c2nc(C(=O)NCCCCCCC(=O)NO)c3[nH]c(=O)n(-c4ccccc4OC)c3n2)cc1S(N)(=O)=O | –
13 | > 100000 nM | > 100000 nM | CCOc1ccc(-c2nc(C(=O)O)c3[nH]c(=O)n(-c4ccccc4OC)c3n2)cc1 | –
14 | 1500 nM | > 100000 nM | CCOc1ccc(-c2nc(C(=O)NCCCCCCC(=O)N(C)O)c3[nH]c(=O)n(-c4ccccc4OC)c3n2)cc1 | –
15 | 3300 nM | > 100000 nM | CCOc1ccc(-c2nc(C(=O)NCCCCCCNC(=O)NO)c3[nH]c(=O)n(-c4ccccc4OC)c3n2)cc1 | –

Second part, the compound before the results:

Row | SMILES | IC50 [1] | IC50 [2] | other results
16 | CCOc1ccc(-c2nc(C(=O)NCCCCC/C(N)=N/O)c3[nH]c(=O)n(-c4ccccc4OC)c3n2)cc1 | 500 nM | > 100000 nM | –
17 | CCOc1ccc(-c2nc(C(=O)NCCCCCCC(=O)O)c3[nH]c(=O)n(-c4ccccc4OC)c3n2)cc1 | 3400 nM | > 100000 nM | –
18 | CCOc1ccc(-c2nc(C(=O)NOCCCCCC(=O)NO)c3[nH]c(=O)n(-c4ccccc4OC)c3n2)cc1 | 250 nM | 130 nM | IC50 [3]: 100 nM
19 | CCOc1ccc(-c2nc(C(=O)NCCCCCCC(=O)N(Cc3ccccn3)Cc3ccccn3)c3[nH]c(=O)n(-c4ccccc4OC)c3n2)cc1 | 2300 nM | > 100000 nM | –
20 | CCOc1ccc(-c2nc(C(=O)NCCCCCCC(=O)NO)c3[nH]c(=O)n(-c4ccccc4OC)c3n2)cc1 | 140 nM | 170 nM | IC50 [4]: 170 nM; IC50 [5]: 320 nM; IC50 [6]: 320 nM; IC50 [7]: 360 nM; IC50 [8]: 270 nM; IC50 [9]: 240 nM; Activity [10]: Active; IC50 [3]: 40 nM; IC50 [11]: 60 nM; IC50 [12]: 260 nM
21 | CCOc1ccc(-c2nc(C(=O)NCCCCCCC(=O)Nc3ccccc3N)c3[nH]c(=O)n(-c4ccccc4OC)c3n2)cc1 | 2200 nM | > 100000 nM | –
22 | CCOc1ccc(-c2nc(C(=O)NCCCc3nc(C(=O)NO)cs3)c3[nH]c(=O)n(-c4ccccc4OC)c3n2)cc1 | 4900 nM | 14200 nM | –
23 | COc1ccccc1-n1c(=O)[nH]c2c(C(=O)NCCCCCCC(=O)NO)nc(C(C)C)nc21 | 1500 nM | 200 nM | –
24 | CCOc1ccc(-c2nc(C(=O)NCc3ccc(C(=O)NO)cc3)c3[nH]c(=O)n(-c4ccccc4OC)c3n2)cc1 | 130 nM | 250 nM | IC50 [3]: 70 nM
25 | CCOc1ccc(-c2nc(C(=O)NCCCCCCC(=O)NO)c3[nH]c(=O)n(-c4cccnc4OC)c3n2)cn1 | 410 nM | 2 nM | IC50 [3]: 320 nM
26 | CCOc1ccc(-c2nc(C(=O)NCCCCCCNC(=O)CN)c3[nH]c(=O)n(-c4ccccc4OC)c3n2)cc1.Cl | 2400 nM | > 100000 nM | –
27 | CCOc1ccc(-c2nc(C(=O)NCCCCCCCN(Cc3ccccn3)Cc3ccccn3)c3[nH]c(=O)n(-c4ccccc4OC)c3n2)cc1 | 2700 nM | > 100000 nM | –
28 | CCOc1ccc(-c2nc(C(=O)NCCCCCNC(=O)CN)c3[nH]c(=O)n(-c4ccccc4OC)c3n2)cc1.Cl | 4900 nM | > 100000 nM | –
29 | CCOc1ccc(-c2nc(C(=O)NCCCCCCNC(N)=O)c3[nH]c(=O)n(-c4ccccc4OC)c3n2)cc1 | 2000 nM | > 100000 nM | –
30 | CCOc1ccc(-c2nc(C(=O)NO)c3[nH]c(=O)n(-c4ccccc4OC)c3n2)cc1 | – | > 100000 nM | –

Source: ChEMBL document CHEMBL5518174 (Eur J Med Chem, 2024)
